Measured values from patent US7994313B2 (priority 2005, dated 2011).

Legend:
[1] = biological target: mitochondrial F1Fo-ATPase; details: cited from earlier work
[2] = tested on: central benzodiazepine receptor; details: cited from earlier work
[3] = biological target: peripheral benzodiazepine receptor ("PBR") (Homo sapiens, UniProt P30536); details: cited from earlier work
[4] = Simulated gastric fluid solubility at 37° C.; format: physicochemical; details: versus solvated Bz-423
[5] = Water solubility at 37° C.; details: versus solvated Bz-423
cells = experiment: Cell viability; format: cell-based; details: compared with solvated Bz-423 (FIG. 13)
[6] = biological target: T1, mitochondrial F0F1 ATPase (Homo sapiens, UniProt P48047); experiment: ATP synthesis; format: biochemical; details: compared with solvated Bz-423 (FIG. 12)
[7] = biological target: T1, mitochondrial F0F1 ATPase; experiment: ATP hydrolysis; format: biochemical; details: compared with solvated Bz-423 (FIG. 11)
rodents = details: two daily doses; cited from earlier work

Sequence of peripheral benzodiazepine receptor ("PBR") (P30536 whole entry, species assumed): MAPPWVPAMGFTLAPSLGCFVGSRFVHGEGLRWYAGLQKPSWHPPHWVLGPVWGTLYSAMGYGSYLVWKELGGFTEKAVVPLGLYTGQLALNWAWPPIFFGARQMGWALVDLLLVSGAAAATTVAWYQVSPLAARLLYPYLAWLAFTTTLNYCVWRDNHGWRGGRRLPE

**Q.** What does the source list for `CN1C(=O)C(Cc2ccc3ccccc3c2)N=C(c2ccc(O)cc2)c2cc(Cl)ccc21` (stereo not shown) [Bz-423]?
**A.** Ki [1]: ~9 µM; binding to the central benzodiazepine receptor [2]: prevents binding to the central benzodiazepine receptor; Kd [3]: ~1 µM

**Q.** Which “solubility in simulated gastric fluid, comparison in words” value [4] does the source give for `CN1C(=O)C(Cc2ccc3ccccc3c2)N=C(c2ccc(O)cc2)c2cc(Cl)ccc21` (stereo not shown) [anhydrous BZ-423 ball milled] here?
**A.** Its value is “more soluble than solvated Bz-423”.

**Q.** And the “water solubility, comparison in words” value [5]?
**A.** The value was “more soluble than solvated Bz-423”.

**Q.** What about the cell viability (cells) of the same compound?
**A.** Its cell viability is “not affecting cell viability”.

**Q.** What about the ATP synthesis [6] of the same compound?
**A.** Its ATP synthesis is “not inhibiting cell synthesis”.

**Q.** And the ATP hydrolysis [7]?
**A.** The ATP hydrolysis was “capable of inhibiting ATP hydrolysis”.

**Q.** For `CC[C@H]1/C=C/C=C/C[C@@H](C)[C@H](O)[C@@](C)(O)C(=O)[C@@H](C)[C@H](O)[C@@H](C)C(=O)[C@@H](C)[C@H](O)[C@@H](C)/C=C/C(=O)O[C@@H]2[C@H](C)[C@H](CC1)O[C@]1(CC[C@H](C)[C@H](C[C@@H](C)O)O1)[C@H]2C` [oligomycin, reference compound], which IC50 [1] is on record?
**A.** The IC50 was 0.01 µM.

**Q.** And the LD50 (rodents)?
**A.** Its LD50 is 0.5 mg/kg.
